Data: ChEMBL document CHEMBL5724914, “Linking interpersonal differences in gut microbiota composition and drug biotransformation activity” (2024)
Each block holds one compound with its values, some of them ahead of it.

Columns and labels:
[1] = (§1) The drug is tested on Z-023 corresponding to metagenome with ENA study accession number: PRJEB37062 and ENA sample accession number: ERS12561822 for biotransformation under anaerobic condition. The drug concentrations were measured over 9 timepoints collected between 0 and 24 hours of incubation by liquid-chromatography-coupled mass spectrometry (LC–MS); conditions: 2 µM
[2] = (§2) The drug is tested on Z-009 corresponding to pig gut metagenome with ENA study accession number: PRJEB37062 and ENA sample accession number: ERS12561809 for biotransformation under anaerobic condition. The drug concentrations were measured over 9 timepoints collected between 0 and 24 hours of incubation by liquid-chromatography-coupled mass spectrometry (LC–MS); conditions: 2 µM
[3] = as §1, with “Z-004” for “Z-023”, “ERS12561804” for “ERS12561822”; conditions: 2 µM
[4] = as §2, with “Z-001” for “Z-009”, “mouse” for “pig”, “ERS12561801” for “ERS12561809”; conditions: 2 µM
[5] = as §2, with “WLS-370” for “Z-009”, “human” for “pig”, “ERS12561793” for “ERS12561809”; conditions: 2 µM
[6] = as §2, with “WLS-170” for “Z-009”, “human” for “pig”, “ERS12561762” for “ERS12561809”; conditions: 2 µM
[7] = as §2, with “WLS-090” for “Z-009”, “human” for “pig”, “ERS12561753” for “ERS12561809”; conditions: 2 µM
[8] = human gut metagenome, 24 h, 2 µM
[9] = human gut metagenome, 24 h, 2 µM; remark: listed apart in the source
[10] = human gut metagenome, 24 h, 2 µM; remark: listed apart in the source
[11] = human gut metagenome, 24 h, 2 µM; remark: listed apart in the source
[12] = human gut metagenome, 24 h, 2 µM; remark: listed apart in the source
[13] = human gut metagenome, 24 h, 2 µM; remark: listed apart in the source
[14] = human gut metagenome, 24 h, 2 µM; remark: listed apart in the source
[15] = human gut metagenome, 24 h, 2 µM; remark: listed apart in the source
[16] = human gut metagenome, 24 h, 2 µM; remark: listed apart in the source
[17] = human gut metagenome, 24 h, 2 µM; remark: listed apart in the source
[18] = human gut metagenome, 24 h, 2 µM; remark: listed apart in the source
[19] = human gut metagenome, 24 h, 2 µM; remark: listed apart in the source
[20] = human gut metagenome, 24 h, 2 µM; remark: listed apart in the source
Also: call rule not given here.

Compound: CN1CCC(=C2c3ccccc3CC(=O)c3sccc32)CC1.O=C(O)/C=C/C(=O)O [KETOTIFEN FUMARATE]
Bacterial Biotransformation [1]: Compound NOT metabolized
Bacterial Biotransformation [2]: Compound metabolized
Bacterial Biotransformation [3]: Compound NOT metabolized
Bacterial Biotransformation [4]: Compound NOT metabolized
Bacterial Biotransformation [5]: Compound metabolized
Bacterial Biotransformation [6]: Compound metabolized
Bacterial Biotransformation [7]: Compound metabolized
Bacterial Biotransformation [8]: Compound NOT metabolized
Bacterial Biotransformation [9]: Compound NOT metabolized
Bacterial Biotransformation [10]: Compound NOT metabolized
Bacterial Biotransformation [11]: Compound metabolized
Bacterial Biotransformation [12]: Compound NOT metabolized
Bacterial Biotransformation [13]: Compound metabolized
Bacterial Biotransformation [14]: Compound metabolized
Bacterial Biotransformation [15]: Compound NOT metabolized
Bacterial Biotransformation [16]: Compound metabolized
Bacterial Biotransformation [17]: Compound NOT metabolized
Bacterial Biotransformation [18]: Compound NOT metabolized
Bacterial Biotransformation [19]: Compound metabolized
Bacterial Biotransformation [20]: Compound metabolized

Compound: CC[C@H](C)C(=O)O[C@H]1CCC=C2C=C[C@H](C)[C@H](CC[C@@H]3C[C@@H](O)CC(=O)O3)[C@H]21 [MEVASTATIN]
Bacterial Biotransformation [1]: Compound metabolized
Bacterial Biotransformation [2]: Compound NOT metabolized
Bacterial Biotransformation [3]: Compound NOT metabolized
Bacterial Biotransformation [4]: Compound NOT metabolized
Bacterial Biotransformation [5]: Compound NOT metabolized
Bacterial Biotransformation [6]: Compound metabolized
Bacterial Biotransformation [7]: Compound metabolized
Bacterial Biotransformation [8]: Compound metabolized
Bacterial Biotransformation [9]: Compound metabolized
Bacterial Biotransformation [10]: Compound NOT metabolized
Bacterial Biotransformation [11]: Compound metabolized
Bacterial Biotransformation [12]: Compound NOT metabolized
Bacterial Biotransformation [13]: Compound metabolized
Bacterial Biotransformation [14]: Compound metabolized
Bacterial Biotransformation [15]: Compound NOT metabolized
Bacterial Biotransformation [16]: Compound metabolized
Bacterial Biotransformation [17]: Compound metabolized
Bacterial Biotransformation [18]: Compound NOT metabolized
Bacterial Biotransformation [19]: Compound metabolized
Bacterial Biotransformation [20]: Compound metabolized

Compound: C#C[C@]1(OC(C)=O)CC[C@H]2[C@@H]3CCC4=C/C(=N/O)CC[C@@H]4[C@H]3CC[C@@]21CC [NORGESTIMATE]
Bacterial Biotransformation [1]: Compound NOT metabolized
Bacterial Biotransformation [2]: Compound NOT metabolized
Bacterial Biotransformation [3]: Compound NOT metabolized
Bacterial Biotransformation [4]: Compound NOT metabolized
Bacterial Biotransformation [5]: Compound NOT metabolized
Bacterial Biotransformation [6]: Compound metabolized
Bacterial Biotransformation [7]: Compound metabolized
Bacterial Biotransformation [8]: Compound metabolized
Bacterial Biotransformation [9]: Compound NOT metabolized
Bacterial Biotransformation [10]: Compound NOT metabolized
Bacterial Biotransformation [11]: Compound NOT metabolized
Bacterial Biotransformation [12]: Compound NOT metabolized
Bacterial Biotransformation [13]: Compound metabolized
Bacterial Biotransformation [14]: Compound metabolized
Bacterial Biotransformation [15]: Compound metabolized
Bacterial Biotransformation [16]: Compound metabolized
Bacterial Biotransformation [17]: Compound metabolized
Bacterial Biotransformation [18]: Compound metabolized
Bacterial Biotransformation [19]: Compound metabolized
Bacterial Biotransformation [20]: Compound metabolized

Other lines, results leading:

Bacterial Biotransformation [1]: Compound NOT metabolized
Bacterial Biotransformation [2]: Compound NOT metabolized
Bacterial Biotransformation [3]: Compound NOT metabolized
Bacterial Biotransformation [4]: Compound NOT metabolized
Bacterial Biotransformation [5]: Compound NOT metabolized
Bacterial Biotransformation [6]: Compound metabolized
Bacterial Biotransformation [7]: Compound metabolized
Bacterial Biotransformation [8]: Compound NOT metabolized
Bacterial Biotransformation [9]: Compound metabolized
Bacterial Biotransformation [10]: Compound NOT metabolized
Bacterial Biotransformation [11]: Compound metabolized
Bacterial Biotransformation [12]: Compound metabolized
Bacterial Biotransformation [13]: Compound metabolized
Bacterial Biotransformation [14]: Compound metabolized
Bacterial Biotransformation [15]: Compound metabolized
Bacterial Biotransformation [16]: Compound metabolized
Bacterial Biotransformation [17]: Compound NOT metabolized
Bacterial Biotransformation [18]: Compound NOT metabolized
Bacterial Biotransformation [19]: Compound metabolized
Bacterial Biotransformation [20]: Compound metabolized
Compound: COc1ccc2cc([C@H](C)C(=O)O)ccc2c1 [NAPROXEN]

Bacterial Biotransformation [1]: Compound metabolized
Bacterial Biotransformation [2]: Compound NOT metabolized
Bacterial Biotransformation [3]: Compound metabolized
Bacterial Biotransformation [4]: Compound NOT metabolized
Bacterial Biotransformation [5]: Compound metabolized
Bacterial Biotransformation [6]: Compound metabolized
Bacterial Biotransformation [7]: Compound metabolized
Bacterial Biotransformation [8]: Compound metabolized
Bacterial Biotransformation [9]: Compound metabolized
Bacterial Biotransformation [10]: Compound metabolized
Bacterial Biotransformation [11]: Compound metabolized
Bacterial Biotransformation [12]: Compound metabolized
Bacterial Biotransformation [13]: Compound metabolized
Bacterial Biotransformation [14]: Compound metabolized
Bacterial Biotransformation [15]: Compound metabolized
Bacterial Biotransformation [16]: Compound metabolized
Bacterial Biotransformation [17]: Compound metabolized
Bacterial Biotransformation [18]: Compound metabolized
Bacterial Biotransformation [19]: Compound metabolized
Bacterial Biotransformation [20]: Compound metabolized
Compound: COc1ccnc(C[S+]([O-])c2nc3ccc(OC(F)F)cc3[nH]2)c1OC (stereo not given) [PANTOPRAZOLE]

Bacterial Biotransformation [1]: Compound NOT metabolized
Bacterial Biotransformation [2]: Compound NOT metabolized
Bacterial Biotransformation [3]: Compound NOT metabolized
Bacterial Biotransformation [4]: Compound NOT metabolized
Bacterial Biotransformation [5]: Compound metabolized
Bacterial Biotransformation [6]: Compound metabolized
Bacterial Biotransformation [7]: Compound metabolized
Bacterial Biotransformation [8]: Compound metabolized
Bacterial Biotransformation [9]: Compound NOT metabolized
Bacterial Biotransformation [10]: Compound NOT metabolized
Bacterial Biotransformation [11]: Compound metabolized
Bacterial Biotransformation [12]: Compound metabolized
Bacterial Biotransformation [13]: Compound metabolized
Bacterial Biotransformation [14]: Compound metabolized
Bacterial Biotransformation [15]: Compound metabolized
Bacterial Biotransformation [16]: Compound metabolized
Bacterial Biotransformation [17]: Compound NOT metabolized
Bacterial Biotransformation [18]: Compound NOT metabolized
Bacterial Biotransformation [19]: Compound metabolized
Bacterial Biotransformation [20]: Compound NOT metabolized
Compound: O=C1N=C([O-])NC1(c1ccccc1)c1ccccc1.[Na+] [PHENYTOIN SODIUM]

Bacterial Biotransformation [1]: Compound NOT metabolized
Bacterial Biotransformation [2]: Compound NOT metabolized
Bacterial Biotransformation [3]: Compound NOT metabolized
Bacterial Biotransformation [4]: Compound NOT metabolized
Bacterial Biotransformation [5]: Compound metabolized
Bacterial Biotransformation [6]: Compound metabolized
Bacterial Biotransformation [7]: Compound metabolized
Bacterial Biotransformation [8]: Compound NOT metabolized
Bacterial Biotransformation [9]: Compound NOT metabolized
Bacterial Biotransformation [10]: Compound NOT metabolized
Bacterial Biotransformation [11]: Compound NOT metabolized
Bacterial Biotransformation [12]: Compound NOT metabolized
Bacterial Biotransformation [13]: Compound metabolized
Bacterial Biotransformation [14]: Compound metabolized
Bacterial Biotransformation [15]: Compound NOT metabolized
Bacterial Biotransformation [16]: Compound NOT metabolized
Bacterial Biotransformation [17]: Compound NOT metabolized
Bacterial Biotransformation [18]: Compound NOT metabolized
Bacterial Biotransformation [19]: Compound metabolized
Bacterial Biotransformation [20]: Compound metabolized
Compound: CN(CCOc1ccc(CC2SC(=O)NC2=O)cc1)c1ccccn1.O=C(O)/C=C\C(=O)O (stereo not given) [ROSIGLITAZONE MALEATE]
